The source made the active and inactive calls. The calls are words filed in the database; no cut-off is given here.
Assays:
Blood = experiment: Ratio of compound IC50 to TXA IC50 in anti-fibrinolytic activity in healthy human fresh blood by plasma clot lysis; format: functional
Plasminogen [1] = molecular target: T1, Plasminogen (Homo sapiens, UniProt P00747); experiment: Inhibition of plasminogen activation assessed as inhibition of recombinant human tissue plasminogen activator (rt-PA)-induced clot lysis measured after clot lysis pre-incubated for 15 mins by buffer clot lysis assay
[2] = molecular target: Tissue-type plasminogen activator (Homo sapiens) (UniProt P00750); experiment: Inhibition of recombinant human tissue plasminogen activator (rt-PA)-induced fibrinolysis in human fresh whole blood assessed as thrombus dissolution within 30 mins after reaching maximum amplitude (LY30) by thromboelastography analysis; format: functional, tissue-based
Plasminogen [3] = molecular target: T1, Plasminogen; experiment: Binding affinity to biotinylated Plasminogen (unknown origin) assessed as dissociation constant by surface plasmon resonance (SPR) analysis
[4] = (§1) Inhibition of Plasminogen (unknown origin) binding to fibrin (unknown origin) interaction by surface plasmon resonance (SPR) analysis; parameters: species or system Homo sapiens
Homo sapiens = species: Homo sapiens; experiment: as §1
[5] = Half life in Sprague-Dawley rat at 2 mg/kg, iv measured upto 24 hrs by LC-MS/MS analysis; format: ADME, organism-based; settings: in vivo
[6] = Half life in beagle dog at 2 mg/kg, iv measured upto 24 hrs by LC-MS/MS analysis; format: ADME, organism-based, Canis lupus familiaris; settings: in vivo
[7] = Half life in Sprague-Dawley rat at 2 mg/kg, IM measured upto 24 hrs by LC-MS/MS analysis; format: ADME, organism-based; settings: in vivo
[8] = Half life in beagle dog at 2 mg/kg, IM measured upto 24 hrs by LC-MS/MS analysis; format: ADME, organism-based, Canis lupus familiaris; settings: in vivo
[9] = AUC (0 to infinity) in Sprague-Dawley rat at 2 mg/kg, iv measured upto 24 hrs by LC-MS/MS analysis; format: ADME, organism-based; settings: in vivo
[10] = AUC (0 to infinity) in beagle dog at 2 mg/kg, iv measured upto 24 hrs by LC-MS/MS analysis; format: ADME, organism-based, Canis lupus familiaris; settings: in vivo
[11] = AUC (0 to infinity) in Sprague-Dawley rat at 2 mg/kg, IM measured upto 24 hrs by LC-MS/MS analysis; format: ADME, organism-based; settings: in vivo
[12] = AUC (0 to infinity) in beagle dog at 2 mg/kg, IM measured upto 24 hrs by LC-MS/MS analysis; format: ADME, organism-based, Canis lupus familiaris; settings: in vivo
[13] = Volume of distribution at steady state in Sprague-Dawley rat at 2 mg/kg, iv measured upto 24 hrs by LC-MS/MS analysis; format: ADME, organism-based; settings: in vivo, read-out: Vdss
[14] = Volume of distribution at steady state in beagle dog at 2 mg/kg, iv measured upto 24 hrs by LC-MS/MS analysis; format: ADME, organism-based, Canis lupus familiaris; settings: in vivo
[15] = Clearance in Sprague-Dawley rat at 2 mg/kg, iv measured upto 24 hrs by LC-MS/MS analysis; format: ADME, organism-based; settings: in vivo
Rattus norvegicus [16] = experiment: Hemostatic effect in rt-PA enhanced Sprague-Dawley rat tail bleeding model assessed as reduction in tail bleeding time at 5 mg/kg infused into right jugular vein; format: functional, organism-based; settings: route iv
Rattus norvegicus [17] = experiment: Hemostatic effect in rt-PA enhanced Sprague-Dawley rat tail bleeding model assessed as reduction in tail bleeding time at 40 mg/kg infused into right jugular vein; format: functional, organism-based; settings: route iv
[18] = molecular target: Tissue-type plasminogen activator (Rattus norvegicus) (UniProt P19637); experiment: Inhibition of recombinant tissue plasminogen activator (rt-PA)-induced fibrinolysis in Sprague-Dawley rat fresh whole blood assessed as thrombus dissolution within 30 mins after reaching maximum amplitude (LY30) at > 3 uM by thromboelastography analysis; format: functional, tissue-based
[19] = molecular target: Voltage-gated inwardly rectifying potassium channel KCNH2 (Homo sapiens, UniProt Q12809); experiment: Inhibition of hERG; format: toxicity
[20] = molecular target: T2, GABA-A receptor; alpha-1/beta-2/gamma-2 (Homo sapiens, UniProt P14867+P18507+P47870); experiment: Inhibition of GABA-A receptor alpha1beta2gamma2 (unknown origin); format: toxicity
T2 sequence (P14867 whole entry): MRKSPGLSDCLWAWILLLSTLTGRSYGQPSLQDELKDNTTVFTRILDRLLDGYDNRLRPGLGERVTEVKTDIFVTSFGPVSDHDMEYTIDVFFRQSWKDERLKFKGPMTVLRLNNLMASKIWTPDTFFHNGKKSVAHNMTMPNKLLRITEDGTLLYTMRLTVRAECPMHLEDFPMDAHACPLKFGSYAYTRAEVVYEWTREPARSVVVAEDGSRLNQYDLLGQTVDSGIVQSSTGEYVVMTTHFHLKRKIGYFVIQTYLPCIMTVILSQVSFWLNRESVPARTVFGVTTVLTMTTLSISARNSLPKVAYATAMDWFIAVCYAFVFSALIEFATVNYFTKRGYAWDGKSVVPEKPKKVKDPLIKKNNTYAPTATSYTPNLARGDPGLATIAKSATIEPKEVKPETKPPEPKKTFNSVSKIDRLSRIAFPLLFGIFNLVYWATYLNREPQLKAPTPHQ
T2 sequence (P47870 whole entry): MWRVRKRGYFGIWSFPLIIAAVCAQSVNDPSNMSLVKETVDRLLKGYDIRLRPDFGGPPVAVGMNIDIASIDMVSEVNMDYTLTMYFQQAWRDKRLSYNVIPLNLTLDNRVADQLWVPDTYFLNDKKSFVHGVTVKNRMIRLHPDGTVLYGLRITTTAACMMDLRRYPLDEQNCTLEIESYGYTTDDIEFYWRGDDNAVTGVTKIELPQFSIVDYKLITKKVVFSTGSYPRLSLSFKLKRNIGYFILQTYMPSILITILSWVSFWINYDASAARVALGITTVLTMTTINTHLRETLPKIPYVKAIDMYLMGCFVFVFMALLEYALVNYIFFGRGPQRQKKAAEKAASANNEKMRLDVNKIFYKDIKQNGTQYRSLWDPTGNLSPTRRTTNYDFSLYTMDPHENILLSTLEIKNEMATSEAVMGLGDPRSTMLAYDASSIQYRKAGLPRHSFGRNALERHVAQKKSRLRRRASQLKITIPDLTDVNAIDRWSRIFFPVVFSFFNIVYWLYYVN
T2 sequence (P18507 whole entry): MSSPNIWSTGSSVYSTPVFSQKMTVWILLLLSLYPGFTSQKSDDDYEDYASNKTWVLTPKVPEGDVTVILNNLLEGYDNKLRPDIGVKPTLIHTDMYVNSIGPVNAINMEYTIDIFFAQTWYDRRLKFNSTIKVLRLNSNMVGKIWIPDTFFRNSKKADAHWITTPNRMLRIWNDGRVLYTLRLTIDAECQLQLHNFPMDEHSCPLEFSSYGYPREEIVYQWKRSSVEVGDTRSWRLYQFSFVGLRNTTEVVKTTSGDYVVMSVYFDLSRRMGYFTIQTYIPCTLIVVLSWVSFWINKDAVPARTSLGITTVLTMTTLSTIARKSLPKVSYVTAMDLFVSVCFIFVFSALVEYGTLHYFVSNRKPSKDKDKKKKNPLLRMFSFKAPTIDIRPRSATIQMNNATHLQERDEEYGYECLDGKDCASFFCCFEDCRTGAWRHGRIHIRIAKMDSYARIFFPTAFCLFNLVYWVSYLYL

[21] = molecular target: Glycine receptor (alpha-1/beta) (Homo sapiens, UniProt P23415+P48167); experiment: Inhibition of glycine receptor alpha1beta (unknown origin); format: toxicity
[22] = Maximum tolerated dose in Sprague-Dawley rat treated intravenously twice a day; format: toxicity, organism-based; settings: in vivo, route iv
[23] = Maximum tolerated dose in beagle dog treated intravenously twice a day; format: toxicity, organism-based, Canis lupus familiaris; settings: in vivo, route iv
[24] = Toxicity in Sprague-Dawley rat assessed as no observed adverse effect level (NOAEL) treated for 14 days; settings: in vivo, time 14 day
[25] = Toxicity in beagle dog assessed as no observed adverse effect level (NOAEL) treated for 14 days; parameters: species or system Canis lupus familiaris; settings: in vivo, time 14 day
[26] = Toxicity in CHO cells assessed as mutagenic effect by chromosome aberration test; format: cell-based, Cricetulus griseus; settings: chinese hamster
[27] = Toxicity in rat peripheral blood cells assessed as clastogenic effect by micronucleus test; format: cell-based; settings: erythrocyte

T1 sequence (P00747 97-580 limits assumed): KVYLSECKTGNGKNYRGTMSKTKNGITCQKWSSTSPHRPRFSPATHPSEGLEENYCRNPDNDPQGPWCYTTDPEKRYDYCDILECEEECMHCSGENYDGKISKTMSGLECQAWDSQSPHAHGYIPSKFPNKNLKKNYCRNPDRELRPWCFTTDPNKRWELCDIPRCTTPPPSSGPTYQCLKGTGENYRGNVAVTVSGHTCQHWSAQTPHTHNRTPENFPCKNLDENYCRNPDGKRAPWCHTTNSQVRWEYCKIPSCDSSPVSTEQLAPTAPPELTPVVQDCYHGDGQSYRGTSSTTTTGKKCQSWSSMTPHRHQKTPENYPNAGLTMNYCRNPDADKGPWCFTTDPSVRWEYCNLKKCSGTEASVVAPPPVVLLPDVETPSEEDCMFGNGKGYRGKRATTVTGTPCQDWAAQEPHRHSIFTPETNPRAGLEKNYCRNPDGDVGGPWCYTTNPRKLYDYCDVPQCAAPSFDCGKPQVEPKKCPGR
T1 sequence (P00747 581-810 limits assumed): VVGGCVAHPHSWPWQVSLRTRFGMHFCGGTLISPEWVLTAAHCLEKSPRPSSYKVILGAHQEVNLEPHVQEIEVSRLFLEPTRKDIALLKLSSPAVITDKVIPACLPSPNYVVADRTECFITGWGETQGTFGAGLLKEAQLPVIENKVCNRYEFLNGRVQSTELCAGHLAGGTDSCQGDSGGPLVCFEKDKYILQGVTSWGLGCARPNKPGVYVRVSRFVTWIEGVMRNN
Voltage-gated inwardly rectifying potassium channel KCNH2, sequence (Q12809 whole entry): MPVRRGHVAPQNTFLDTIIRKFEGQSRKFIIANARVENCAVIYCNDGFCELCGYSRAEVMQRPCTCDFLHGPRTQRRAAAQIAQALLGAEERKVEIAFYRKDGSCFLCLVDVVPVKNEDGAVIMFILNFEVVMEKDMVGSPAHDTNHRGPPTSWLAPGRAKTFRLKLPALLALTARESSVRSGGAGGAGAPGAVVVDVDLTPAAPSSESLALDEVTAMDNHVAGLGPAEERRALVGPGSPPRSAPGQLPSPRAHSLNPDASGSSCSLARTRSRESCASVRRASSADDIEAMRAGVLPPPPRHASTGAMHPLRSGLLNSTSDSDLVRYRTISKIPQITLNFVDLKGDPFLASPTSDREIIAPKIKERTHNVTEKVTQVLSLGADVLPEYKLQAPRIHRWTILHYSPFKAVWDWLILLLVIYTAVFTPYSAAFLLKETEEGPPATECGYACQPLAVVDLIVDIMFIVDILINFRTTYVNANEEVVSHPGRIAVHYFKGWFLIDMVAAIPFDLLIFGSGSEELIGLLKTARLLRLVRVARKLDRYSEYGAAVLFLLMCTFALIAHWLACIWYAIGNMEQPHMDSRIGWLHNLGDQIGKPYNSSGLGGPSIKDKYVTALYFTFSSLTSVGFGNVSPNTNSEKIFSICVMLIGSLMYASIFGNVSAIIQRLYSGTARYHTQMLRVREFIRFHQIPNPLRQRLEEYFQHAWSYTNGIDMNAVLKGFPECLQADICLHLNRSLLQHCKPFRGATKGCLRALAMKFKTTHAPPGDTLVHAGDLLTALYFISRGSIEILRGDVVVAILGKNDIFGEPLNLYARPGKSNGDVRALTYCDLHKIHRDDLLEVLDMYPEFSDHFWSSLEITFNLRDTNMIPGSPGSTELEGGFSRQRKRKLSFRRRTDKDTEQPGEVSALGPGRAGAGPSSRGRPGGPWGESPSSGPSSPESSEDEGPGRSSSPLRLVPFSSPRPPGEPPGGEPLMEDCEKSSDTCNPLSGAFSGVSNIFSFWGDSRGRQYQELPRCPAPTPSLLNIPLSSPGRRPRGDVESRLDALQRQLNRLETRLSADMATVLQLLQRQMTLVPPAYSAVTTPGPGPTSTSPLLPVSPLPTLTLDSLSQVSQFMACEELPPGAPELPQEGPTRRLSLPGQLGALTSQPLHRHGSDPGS
Glycine receptor (alpha-1/beta), sequence (P23415 whole entry): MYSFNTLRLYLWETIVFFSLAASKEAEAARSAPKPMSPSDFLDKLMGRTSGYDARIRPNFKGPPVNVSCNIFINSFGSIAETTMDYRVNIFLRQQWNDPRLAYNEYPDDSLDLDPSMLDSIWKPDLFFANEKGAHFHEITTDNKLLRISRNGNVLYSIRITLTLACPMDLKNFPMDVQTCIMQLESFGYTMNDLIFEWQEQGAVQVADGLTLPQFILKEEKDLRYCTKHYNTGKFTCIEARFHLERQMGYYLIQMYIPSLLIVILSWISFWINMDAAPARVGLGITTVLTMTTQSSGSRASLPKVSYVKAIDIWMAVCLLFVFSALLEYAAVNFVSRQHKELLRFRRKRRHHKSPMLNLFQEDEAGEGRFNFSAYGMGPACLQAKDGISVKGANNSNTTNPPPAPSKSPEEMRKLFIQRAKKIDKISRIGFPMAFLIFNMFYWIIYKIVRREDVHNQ
Glycine receptor (alpha-1/beta), sequence (P48167 whole entry): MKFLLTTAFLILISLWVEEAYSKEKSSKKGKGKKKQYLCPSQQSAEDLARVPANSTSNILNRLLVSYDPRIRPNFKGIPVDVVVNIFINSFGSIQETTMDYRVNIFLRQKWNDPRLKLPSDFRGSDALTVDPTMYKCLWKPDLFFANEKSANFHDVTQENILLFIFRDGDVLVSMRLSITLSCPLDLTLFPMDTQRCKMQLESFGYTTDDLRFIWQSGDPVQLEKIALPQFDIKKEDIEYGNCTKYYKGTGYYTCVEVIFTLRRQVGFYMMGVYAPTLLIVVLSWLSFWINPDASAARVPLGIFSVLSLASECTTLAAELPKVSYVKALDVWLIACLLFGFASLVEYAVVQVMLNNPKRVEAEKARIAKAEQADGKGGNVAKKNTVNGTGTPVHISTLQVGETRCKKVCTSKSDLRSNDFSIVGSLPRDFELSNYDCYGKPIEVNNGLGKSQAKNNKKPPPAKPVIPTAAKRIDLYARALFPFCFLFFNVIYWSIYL
Tissue-type plasminogen activator (Rattus norvegicus), sequence (P19637 whole entry): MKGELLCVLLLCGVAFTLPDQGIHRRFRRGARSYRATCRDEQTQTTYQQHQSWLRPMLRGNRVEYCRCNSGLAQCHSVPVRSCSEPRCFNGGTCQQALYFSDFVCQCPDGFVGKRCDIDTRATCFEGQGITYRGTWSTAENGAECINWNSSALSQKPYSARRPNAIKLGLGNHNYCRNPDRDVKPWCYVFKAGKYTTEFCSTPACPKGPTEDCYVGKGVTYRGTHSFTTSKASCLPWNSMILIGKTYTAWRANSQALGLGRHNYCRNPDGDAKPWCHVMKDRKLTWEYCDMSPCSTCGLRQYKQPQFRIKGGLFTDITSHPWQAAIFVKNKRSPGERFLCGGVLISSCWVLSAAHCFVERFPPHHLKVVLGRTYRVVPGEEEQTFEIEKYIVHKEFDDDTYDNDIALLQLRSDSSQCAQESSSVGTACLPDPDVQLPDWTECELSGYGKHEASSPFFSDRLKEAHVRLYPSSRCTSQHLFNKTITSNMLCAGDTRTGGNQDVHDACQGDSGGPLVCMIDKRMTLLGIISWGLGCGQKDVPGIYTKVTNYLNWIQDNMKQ
Tissue-type plasminogen activator (Homo sapiens), sequence (P00750 36-562 limits assumed): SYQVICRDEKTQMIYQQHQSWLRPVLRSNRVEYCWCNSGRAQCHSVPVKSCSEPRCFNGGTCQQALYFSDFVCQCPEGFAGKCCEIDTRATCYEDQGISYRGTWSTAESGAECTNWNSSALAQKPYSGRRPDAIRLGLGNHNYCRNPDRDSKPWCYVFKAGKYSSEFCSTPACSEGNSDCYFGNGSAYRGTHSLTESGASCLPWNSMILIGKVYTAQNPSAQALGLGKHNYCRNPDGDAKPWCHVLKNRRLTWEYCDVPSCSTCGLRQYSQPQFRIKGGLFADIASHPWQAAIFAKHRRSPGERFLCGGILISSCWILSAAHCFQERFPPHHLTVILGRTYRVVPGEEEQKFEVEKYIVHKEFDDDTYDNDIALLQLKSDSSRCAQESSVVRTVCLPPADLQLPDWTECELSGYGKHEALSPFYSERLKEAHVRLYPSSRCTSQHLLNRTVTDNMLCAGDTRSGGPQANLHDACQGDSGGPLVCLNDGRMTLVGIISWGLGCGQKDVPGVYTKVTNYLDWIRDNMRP

Which “Ratio IC50” value (Blood) does the source give for `Cl.O=P(O)(O)c1ccc2c(n1)CCNC2` here?
The value was 0.19.

And the IC50 (Plasminogen [1])?
Its IC50 is 8.42 µM.

What about the IC90 [2] of the same compound?
Its IC90 is 1.01 µM.

What about the Kd (Plasminogen [3]) of the same compound?
The Kd was 21.1 µM.

And the IC50 [4]?
The IC50 was 1.48 µM.

And the IC90 (Homo sapiens)?
The IC90 was 4.71 µM.

And the half-life [5]?
The half-life was 2.53 h.

And the t1/2 [6]?
Its t1/2 is 11.1 h.

What about the half-life [7] of the same compound?
The half-life was 2.41 h.

And the half-life [8]?
Its half-life is 12.8 h.

What about the AUC(0-inf) [9] of the same compound?
The AUC(0-inf) was 11600 ng·h/mL.

And the AUC [10]?
The AUC was 16600 ng·h/mL.

What about the AUC(0-inf) [11] of the same compound?
Its AUC(0-inf) is 14200 ng·h/mL.

What about the AUC(0-inf) [12] of the same compound?
Its AUC(0-inf) is 16500 ng·h/mL.

What about the Vd [13] of the same compound?
The Vd was 0.473 L/kg.

What about the Vdss [14] of the same compound?
Its Vdss is 0.96 L/kg.

What about the clearance [15] of the same compound?
The clearance was 2.64 mL/min/kg.

What about the Activity (Rattus norvegicus [16]) of the same compound?
Its Activity is “Active”.

What about the Activity (Rattus norvegicus [17]) of the same compound?
The Activity was “Active”.

And the inhibition [18]?
Its inhibition is “Active”.

And the IC50 [19]?
Its IC50 is greater than 300 µM.

And the IC50 [20]?
Its IC50 is 782 µM.

And the IC50 [21]?
The IC50 was 540 µM.

What about the MTD [22] of the same compound?
The MTD was greater than 500 mg/kg.

What about the MTD [23] of the same compound?
Its MTD is greater than 500 mg/kg.

What about the NOAEL at 336 h [24] of the same compound?
Its NOAEL at 336 h is 60 mg/kg.

And the NOAEL at 336 h [25]?
The NOAEL at 336 h was 70 mg/kg.

And the Activity [26]?
The Activity was “Non-toxic”.

And the Activity [27]?
Its Activity is “Non-toxic”.

Reference: ChEMBL document CHEMBL6103656, “Discovery of BT-114143, a Novel and Potent Phosphoric Acid-Containing Small-Molecule Plasminogen Activation Inhibitor for Hyperfibrinolysis” (J Med Chem, 2025)
